Measurements reported in patent US10040838B2, “CRHR2 peptide agonists and uses thereof” (JANSSEN PHARMACEUTICA NV, priority 2008, dated 2018).
Residues, ends and D or L forms follow the SMILES beside them. No end group written: not given here. *: point of attachment. Succinimide(1-Et,3-yl) = CCN1C(=O)CC(*)C1=O

Biological target: T1, human CRHR2 (Homo sapiens, UniProt Q13324)
T1 construct: expressed in transfected cells
T1 sequence (Q13324 1-411): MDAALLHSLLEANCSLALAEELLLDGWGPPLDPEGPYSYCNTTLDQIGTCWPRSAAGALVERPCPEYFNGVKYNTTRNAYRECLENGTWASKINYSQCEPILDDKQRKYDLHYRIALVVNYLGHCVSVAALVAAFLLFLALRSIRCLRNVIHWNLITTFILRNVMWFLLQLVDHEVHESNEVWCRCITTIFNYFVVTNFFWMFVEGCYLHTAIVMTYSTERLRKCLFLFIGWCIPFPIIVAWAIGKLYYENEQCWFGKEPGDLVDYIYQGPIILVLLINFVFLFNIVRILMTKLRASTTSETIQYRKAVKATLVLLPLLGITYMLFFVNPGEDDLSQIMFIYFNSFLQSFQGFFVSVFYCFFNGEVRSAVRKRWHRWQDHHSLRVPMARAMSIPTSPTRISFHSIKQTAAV
Test: cAMP assay in h-CRHR2 transfected SK-N-MC cells
Type: cell-based
Settings: for Log DR: Table 13, h-SCP control pA50 minus test compound pA50 within same assay batch
Protocol: The concentration required for 50% maximum effect (A50) was 0.4 nM.
Human CRHR1 (accession number X72304) or CRHR2 (accession number U34587) were cloned into pcDNA3.1/Zeo expression vector and stably transfected into SK-N-MC cells by electroporation. Cells were maintained in MEM w/Earl's Salt with 10% FBS, 50 I.U. penicillin, 50 μg/ml streptomycin, 2 mM L-glutamine, 1 mM sodium pyruvate and 0.1 mM nonessential amino acids, 600 μg/ml G418. Cells were grown at 37° C. in 5% CO2.
Cells were plated in 96-well tissue culture dishes (Biocoat from BD Biosciences) overnight at 50,000 cell/well. Cells were washed with PBS then resuspended in DMEM F-12 without phenol red, containing 10 μM isobutylmethylxanthine (IBMX). Cells were incubated with the peptides at concentrations ranging from 1 pM to 10 μM for 60 min at 37° Celsius. […] Forskolin (10 μM), a direct stimulant of adenylate cyclase, was used as positive control. The assays were stopped by the addition of 0.5 M HCl and mixing by orbital rotation for 2 h at 4° Celsius.
To assess the activity of the inventive peptide at the CRHR2, an intracellular cAMP measurement test using a Flash plate radioactive assay (Catalog No. Cus56088; Perkin Elmer, MA, U.S.A.) was employed.
Transfected SK-N-MC cells were plated in 96-well Biocoat tissue culture dishes (BD Biosciences, San Jose, Calif., U.S.A) overnight at 50,000 cell/well. Cells were first washed with PBS and then suspended with DMEM/F-12 without phenol red, containing […]. Suspended cells were transferred into a 96-well flash plate coated with scintillant fluid. Cells were incubated with peptides ranging from […], for 60 min, at 37° Celsius. Forskolin at 10 μM was used as positive control. After ligand stimulation, cells were lysed by the addition of 0.5M HCl and mixed by orbital rotation for 2 h at 4° Celsius in order to release intracellular cAMP into the media.
Media containing released intracellular cAMP was transferred to a 96-well flash plate coated with scintillant fluid containing an anti-cAMP antibody. In this assay, intracellular cAMP competes with ^125I-labeled cAMP binding to the antibody. To generate a standard curve, cAMP ranging from 2.5 to 250 pmoles/ml was included in the experiment. [^125I]-cAMP was measured on a TopCount scintillation counter (Perkin Elmer, MA, U.S.A).
Individual agonist concentration-response curve data were fitted to the Hill equation, see formula below, using GraphPad Prism (Graphpad Software, La Jolla, Calif., U.S.A.), to provide estimates of agonist concentration needed to generate one-half maximal response (A50), and the maximal asymptote (α) and Hill slope (nH) parameters. In this equation, [A] is the agonist concentration and E is the measured effect:
For display purposes the mean fitted parameter estimates were used to generate a single E/[A] curve shown superimposed on the mean experimental data. Potency estimates for agonists, pA50, are expressed as the negative logarithm of the midpoint of each curve and listed with their standard error of measurement (SEM). Logarithm base 10 of the agonist dose ratio (Log DR) values were calculated by subtraction of the test compound pA50 value from the corresponding h-SCP (SEQ ID NO:1) control pA50 value within the same assay batch. The SEM values of the Log DR values are given by the square root of the sum of the squared SEM values of the h-SCP (SEQ ID NO:1) control and test compound pA50 values.
Human and rat peptides (see Table 10) were used on the stimulation of h-CRHR1 or h-CRHR2 transfected SK-N-MC cells in the cAMP flash plate assay. Peptides were incubated for 1 hr at 37° Celsius. Curves were calculated using non-linear regression sigmoidal concentration-response analysis calculation in GraphPad Prism. The so obtained pA50 values are shown in Table 11 in addition to literature values. […]

Row | Log DR | Kd (tested as antagonists of h-SCP at 10 μM, read-out: receptor affinity (KA)) | Compound
1 | 0.05 |  | CC[C@H](C)[C@H](NC(=O)[C@H](CCC(N)=O)NC(=O)[C@H](C)NC(=O)[C@H](CCSC)NC(=O)[C@H](CC(C)C)NC(=O)[C@H](Cc1c[nH]cn1)NC(=O)[C@H](C)NC(=O)[C@H](CC(N)=O)NC(=O)[C@H](C)NC(=O)[C@H](C)NC(=O)[C@H](C)NC(=O)[C@H](CCC(N)=O)NC(=O)[C@H](C)NC(=O)[C@H](CCCNC(=N)N)NC(=O)[C@H](CC(C)C)NC(=O)[C@H](CC(N)=O)NC(=O)[C@H](CCCCN)NC(=O)[C@H](C)NC(=O)[C@H](CCCCN)NC(=O)[C@H](C)NC(=O)[C@@H](NC(=O)[C@H](CSC1CC(=O)N(CC)C1=O)NC(=O)[C@H](Cc1ccccc1)NC(=O)[C@H](CC(C)C)NC(=O)[C@H](CC(C)C)NC(=O)[C@H](CC(N)=O)NC(=O)[C@H](CCSC)NC(=O)[C@@H](NC(=O)[C@H](CC(N)=O)NC(=O)[C@@H](NC(=O)[C@@H]1CCCN1C(=O)[C@@H](NC(=O)[C@H](CC(=O)O)NC(=O)[C@H](CC(C)C)NC(=O)[C@H](CO)NC(=O)[C@H](CC(C)C)NC(=O)[C@@H](NC(=O)[C@H](Cc1ccccc1)NC(=O)[C@H](CCCCN)NC(=O)[C@@H](N)[C@@H](C)O)[C@@H](C)O)C(C)C)[C@@H](C)O)[C@@H](C)CC)[C@@H](C)CC)C(N)=O (stereo partly drawn) [SEQ ID NO: 52, TKFTL SLDVP TNIMN LLFC(-NES)I AKAKN LRAQA AANAH LMAQI-NH2] (H-TKFTLSLDVPTNIMNLLFC(Succinimide(1-Et,3-yl))IAKAKNLRAQAAANAHLMAQI-NH2; N-terminus assumed)
2 | 0.55 |  | TKFTLSLDVPTNIMNLLFNIAKAKNLRAQAAANAHLMACI-NH2 [SEQ ID NO: 40, TKFTLSLDVPTNIMNLLFNIAKAKNLRAQAAANAHLMACI-NH2]
3 | 1.03 |  | TKCTLSLDVPTNIMNLLFNIAKAKNLRAQAAANAHLMAQI-NH2 [SEQ ID NO: 4, TKCTLSLDVPTNIMNLLFNIAKAKNLRAQAAANAHLMAQI-NH2]
4 | −0.03 |  | CC[C@H](C)[C@H](NC(=O)[C@H](CCC(N)=O)NC(=O)[C@H](C)NC(=O)[C@H](CCSC)NC(=O)[C@H](CC(C)C)NC(=O)[C@H](Cc1c[nH]cn1)NC(=O)[C@H](C)NC(=O)[C@H](CC(N)=O)NC(=O)[C@H](C)NC(=O)[C@H](C)NC(=O)[C@H](C)NC(=O)[C@H](CCC(N)=O)NC(=O)[C@H](CSC1CC(=O)N(CC)C1=O)NC(=O)[C@H](CCCNC(=N)N)NC(=O)[C@H](CC(C)C)NC(=O)[C@H](CC(N)=O)NC(=O)[C@H](CCCCN)NC(=O)[C@H](C)NC(=O)[C@H](CCCCN)NC(=O)[C@H](C)NC(=O)[C@@H](NC(=O)[C@H](CC(N)=O)NC(=O)[C@H](Cc1ccccc1)NC(=O)[C@H](CC(C)C)NC(=O)[C@H](CC(C)C)NC(=O)[C@H](CC(N)=O)NC(=O)[C@H](CCSC)NC(=O)[C@@H](NC(=O)[C@H](CC(N)=O)NC(=O)[C@@H](NC(=O)[C@@H]1CCCN1C(=O)[C@@H](NC(=O)[C@H](CC(=O)O)NC(=O)[C@H](CC(C)C)NC(=O)[C@H](CO)NC(=O)[C@H](CC(C)C)NC(=O)[C@@H](NC(=O)[C@H](Cc1ccccc1)NC(=O)[C@H](CCCCN)NC(=O)[C@@H](N)[C@@H](C)O)[C@@H](C)O)C(C)C)[C@@H](C)O)[C@@H](C)CC)[C@@H](C)CC)C(N)=O (stereo partly drawn) [SEQ ID NO: 47, TKFTLSLDVPTNIMNLLFNIAKAKNLRC(-NES)QA AANAH LMAQI-NH2] (H-TKFTLSLDVPTNIMNLLFNIAKAKNLRC(Succinimide(1-Et,3-yl))QAAANAHLMAQI-NH2; N-terminus assumed)
5 | 0.41 |  | TKFTLSLDVPTNIMNLLFNIAKAKNLRAQAAANAHLMCQI-NH2 [SEQ ID NO: 39, TKFTLSLDVPTNIMNLLFNIAKAKNLRAQAAANAHLMCQI-NH2]
6 | −0.01 |  | CC[C@H](C)[C@H](NC(=O)[C@H](CCC(N)=O)NC(=O)[C@H](C)NC(=O)[C@H](CCSC)NC(=O)[C@H](CC(C)C)NC(=O)[C@H](Cc1c[nH]cn1)NC(=O)[C@H](C)NC(=O)[C@H](CC(N)=O)NC(=O)[C@H](C)NC(=O)[C@H](C)NC(=O)[C@H](C)NC(=O)[C@H](CCC(N)=O)NC(=O)[C@H](C)NC(=O)[C@H](CCCNC(=N)N)NC(=O)[C@H](CC(C)C)NC(=O)[C@H](CC(N)=O)NC(=O)[C@H](CSC1CC(=O)N(CC)C1=O)NC(=O)[C@H](C)NC(=O)[C@H](CCCCN)NC(=O)[C@H](C)NC(=O)[C@@H](NC(=O)[C@H](CC(N)=O)NC(=O)[C@H](Cc1ccccc1)NC(=O)[C@H](CC(C)C)NC(=O)[C@H](CC(C)C)NC(=O)[C@H](CC(N)=O)NC(=O)[C@H](CCSC)NC(=O)[C@@H](NC(=O)[C@H](CC(N)=O)NC(=O)[C@@H](NC(=O)[C@@H]1CCCN1C(=O)[C@@H](NC(=O)[C@H](CC(=O)O)NC(=O)[C@H](CC(C)C)NC(=O)[C@H](CO)NC(=O)[C@H](CC(C)C)NC(=O)[C@@H](NC(=O)[C@H](Cc1ccccc1)NC(=O)[C@H](CCCCN)NC(=O)[C@@H](N)[C@@H](C)O)[C@@H](C)O)C(C)C)[C@@H](C)O)[C@@H](C)CC)[C@@H](C)CC)C(N)=O (stereo partly drawn) [SEQ ID NO: 50, TKFTLSLDVPTNIMNLLFNIAKAC(-NES)N LRAQA AANAH LMAQI-NH2] (H-TKFTLSLDVPTNIMNLLFNIAKAC(Succinimide(1-Et,3-yl))NLRAQAAANAHLMAQI-NH2; N-terminus assumed)
7 | −0.32 |  | CC[C@H](C)[C@H](NC(=O)[C@H](CCC(N)=O)NC(=O)[C@H](C)NC(=O)[C@H](CCSC)NC(=O)[C@H](CC(C)C)NC(=O)[C@H](CSC1CC(=O)N(CC)C1=O)NC(=O)[C@H](C)NC(=O)[C@H](CC(N)=O)NC(=O)[C@H](C)NC(=O)[C@H](C)NC(=O)[C@H](C)NC(=O)[C@H](CCC(N)=O)NC(=O)[C@H](C)NC(=O)[C@H](CCCNC(=N)N)NC(=O)[C@H](CC(C)C)NC(=O)[C@H](CC(N)=O)NC(=O)[C@H](CCCCN)NC(=O)[C@H](C)NC(=O)[C@H](CCCCN)NC(=O)[C@H](C)NC(=O)[C@@H](NC(=O)[C@H](CC(N)=O)NC(=O)[C@H](Cc1ccccc1)NC(=O)[C@H](CC(C)C)NC(=O)[C@H](CC(C)C)NC(=O)[C@H](CC(N)=O)NC(=O)[C@H](CCSC)NC(=O)[C@@H](NC(=O)[C@H](CC(N)=O)NC(=O)[C@@H](NC(=O)[C@@H]1CCCN1C(=O)[C@@H](NC(=O)[C@H](CC(=O)O)NC(=O)[C@H](CC(C)C)NC(=O)[C@H](CO)NC(=O)[C@H](CC(C)C)NC(=O)[C@@H](NC(=O)[C@H](Cc1ccccc1)NC(=O)[C@H](CCCCN)NC(=O)[C@@H](N)[C@@H](C)O)[C@@H](C)O)C(C)C)[C@@H](C)O)[C@@H](C)CC)[C@@H](C)CC)C(N)=O (stereo partly drawn) [SEQ ID NO: 43, TKFTLSLDVPTNIMNLLFNIAKAKNLRAQAAANAC(-NES) LMAQI-NH2] (H-TKFTLSLDVPTNIMNLLFNIAKAKNLRAQAAANAC(Succinimide(1-Et,3-yl))LMAQI-NH2; N-terminus assumed)
8 |  | < 10 µM | LDVPTNIMNLLFNIAKAKNLRAQAAANAHLMAQI-NH2 [SEQ ID NO: 111, LDVPTNIMNLLFNIAKAKNLRAQAAANAHLMAQI-NH2]
9 | 0.52 |  | TKFTLSLDVPTNIMNLLFNICKAKNLRAQAAANAHLMAQI-NH2 [SEQ ID NO: 22, TKFTLSLDVPTNIMNLLFNICKAKNLRAQAAANAHLMAQI-NH2]
